Where a name gives a salt, the structure may show the parent alone.
Target: HCV NS5b RNA dependent RNA polymerase (Hepatitis C virus genotype 1a, UniProt P27958)
Assay: Inhibition of HCV NS5b RNA dependent RNA polymerase activity (incorporation of 3H labeled GTP, scintillation proximity)
Assay type: biochemical
Conditions: HCV NS5b polymerase assay; read-out: concentration for 50% inhibition (inhibitory activity, Table 2)
Protocol: Compounds of the present invention are evaluated for inhibition of HCV NS5b RNA dependent RNA polymerase activity in assays comprised of a suitable buffer (e.g. 20 mM Tris-HCl pH 7.6), primed or unprimed RNA templates, GTP, ATP, CTP, and UTP, MnCl2 or MgCl2, and reducing agent such as 10 mM dithiothreitol or 2-mercaptoethanol. The assay buffer may contain salts such as ammonium acetate, KCl, or NaCl, and nonionic or zwitterionic detergents such as Tween or CHAPS. The incorporation of nucleotides into the complementary RNA strand may be monitored by the incorporation of radiolabeled NTP (e.g. ^3H labeled GTP). Suitable RNA templates for de novo initiation in the presence of 20-50 μM GTP or ATP are the homopolymers poly rC and poly rU, respectively. Heteropolymer RNA templates with 1-3 cytidine (C) bases or 1-3 uridine (U) bases at the 3′ terminus of the template may also be used for de novo initiation. Primed RNA templates such as poly rC primed with oligo rG or oligo dG, and poly rA primed with oligo rU may also be used to detect polymerase activity. The primers may be any length greater than 10 bases. A biotin residue may be added to the 5′ end of the template or the 5′ end of the primer to capture the template and the newly synthesized, complementary strand on avidin coated spheres. One embodiment of this technology consists of a mixture of NS5b polymerase, a poly rC RNA template primed with 5′ biotinylated oligo rG, 20 mM Tris HCl pH 7.6, 100 mM ammonium acetate, 10 mM dithiothreitol, 2 mM CHAPS, 1 mM MgCl2, and 150-200 nM ^3H labeled GTP. Test compounds (inhibitors) may be incorporated in the reaction mixture with up to 10% DMSO. The reaction is run for various times (1-180 minutes) at 22-37° C., and stopped by the addition of 10-140 mM EDTA. Scintillation Proximity Assay avidin-coated beads (Amersham Pharmacia Biotech) are added to capture the ds RNA product; or the reaction mixtures may be transferred to avidin coated Flash Plates (Perkin Elmer Life Sciences). The incorporation of radiolabeled GTP into the complementary strand is measured in 96, 384, or 1536 well plates in scintillation counters such as the Wallac Microbeta and Packard TopCount.

Chain of HCV NS5b RNA dependent RNA polymerase (P27958 2421-3011): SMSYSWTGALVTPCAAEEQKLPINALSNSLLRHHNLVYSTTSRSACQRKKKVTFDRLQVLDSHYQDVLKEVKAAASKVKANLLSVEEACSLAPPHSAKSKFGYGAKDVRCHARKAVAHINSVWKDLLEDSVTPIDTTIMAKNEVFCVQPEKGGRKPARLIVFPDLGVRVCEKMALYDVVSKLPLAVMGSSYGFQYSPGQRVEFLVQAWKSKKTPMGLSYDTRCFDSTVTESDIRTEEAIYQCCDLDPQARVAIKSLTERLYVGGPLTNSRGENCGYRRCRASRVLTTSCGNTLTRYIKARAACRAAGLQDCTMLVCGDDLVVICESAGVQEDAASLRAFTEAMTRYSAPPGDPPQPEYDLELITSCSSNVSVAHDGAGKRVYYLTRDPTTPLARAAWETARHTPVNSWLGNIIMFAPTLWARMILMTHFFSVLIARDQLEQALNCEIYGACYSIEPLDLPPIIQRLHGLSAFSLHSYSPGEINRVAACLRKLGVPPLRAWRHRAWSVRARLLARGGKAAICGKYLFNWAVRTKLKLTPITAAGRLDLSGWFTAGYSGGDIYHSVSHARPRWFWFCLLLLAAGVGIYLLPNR

Row | Molecule | IC50 [µM]
1 | N#Cc1ccc(Nc2ccccc2Nc2ccccc2C(=O)O)c(C(=O)O)c1 [li, 2-({2-[(2-carboxyphenyl)amino]phenyl}amino)-5-cyanobenzoic acid] | 1 to 20
2 | O=C(O)c1ccccc1Nc1ccc(C(F)(F)F)cc1Nc1ccccc1C(=O)O [xxxi, 2-{[2-[(2-carboxyphenyl)amino]-4-(trifluoromethyl)phenyl]amino}benzoic acid] | < 1
3 | O=C(O)c1ccccc1Nc1cc(C(F)(F)F)ccc1Oc1ccccc1C(=O)O [lxv, 2-{[2-(2-carboxyphenoxy)-5-(trifluoromethyl)phenyl]amino}benzoic acid] | 1 to 20
4 | Cc1ccc(Nc2ccccc2C(=O)O)c(Nc2ccccc2C(=O)O)c1 [xl, 2-({2-[(2-carboxyphenyl)amino]-4-methylphenyl}amino)benzoic acid] | 1 to 20
5 | O=C(O)c1ccccc1Nc1ccccc1Nc1ccccc1C(=O)O [lviii] | > 20
6 | c1ccc(Nc2ccccc2-c2nnn[nH]2)c(Nc2ccccc2-c2nnn[nH]2)c1 [lv, N,N′-bis[2-(1H-tetrazol-5-yl)phenyl]benzene-1,2-diamine, disodium salt] | 1 to 20
7 | O=C(O)c1ccccc1Nc1ccccc1Nc1cc(F)c(F)cc1C(=O)O [lvii, 2-({2-[(2-carboxyphenyl)amino]phenyl}amino)-4,5-difluorobenzoic acid] | 1 to 20
8 | NCc1ccc(Nc2cc(C(F)(F)F)ccc2Oc2ccccc2C(=O)O)c(C(=O)O)c1 [xxv, 5-(aminomethyl)-2-{[2-(2-carboxyphenoxy)-5-(trifluoromethyl)phenyl]amino}benzoic acid hydrochloride] | > 20
9 | N[C@@H](Cc1ccccc1)C(=O)NCc1ccc(Nc2cc(C(F)(F)F)ccc2Nc2ccccc2C(=O)O)c(C(=O)O)c1 [xviii, N-(3-carboxy-4-{[2-[(2-carboxyphenyl)amino]-5-(trifluoromethyl)phenyl]amino}benzyl)-L-phenylalaninamide chloride] | > 20
10 | COc1ccc(Nc2ccccc2Nc2ccccc2C(=O)O)c(C(=O)O)c1 [lx, 2-({2-[(2-carboxyphenyl)amino]phenyl}amino)-5-methoxybenzoic acid] | > 20
11 | NCc1ccc(Nc2ccc(C(F)(F)F)cc2Nc2ccccc2C(=O)O)c(C(=O)O)c1 [xxiv, 5-(aminomethyl)-2-{[2-[(2-carboxyphenyl)amino]-4-(trifluoromethyl)phenyl]amino}benzoic acid hydrochloride] | < 1
12 | 5-(aminomethyl)-2-{[2-[(2-carboxyphenyl)thio]-5-(trifluoromethyl)phenyl]amino}benzoic acid [xii] | 1 to 20

More lines, now with the values ahead:

Row | IC50 [µM] | Molecule
13 | 1 to 20 | O=C(O)c1ccccc1Nc1ccc(F)cc1Nc1ccccc1C(=O)O [lii, 2-({2-[(2-carboxyphenyl)amino]-4-fluorophenyl}amino)benzoic acid]
14 | 1 to 20 | O=C(O)c1ccccc1Nc1ccc(C(F)(F)F)cc1Nc1ccc(CN2CCCC2)cc1C(=O)O [xxx, 2-{[2-[(2-carboxyphenyl)amino]-5-(trifluoromethyl)phenyl]amino}-5-(pyrrolidin-1-ylmethyl)benzoic acid]
15 | 1 to 20 | N#Cc1ccc(Nc2ccc(C(F)(F)F)cc2Nc2ccccc2C(=O)O)c(C(=O)O)c1 [xvi, 2-{[2-[(2-carboxyphenyl)amino]-4-(trifluoromethyl)phenyl]amino}-5-cyanobenzoic acid]
16 | < 1 | NCCc1ccc(Nc2cc(C(F)(F)F)ccc2Nc2ccccc2C(=O)O)c(C(=O)O)c1 [xxxviii, 5-(2-aminoethyl)-2-{[2-[(2-carboxyphenyl)amino]-5-(trifluoromethyl)phenyl]amino}benzoic acid hydrochloride]
17 | < 1 | NCCc1ccc(Nc2ccc(C(F)(F)F)cc2Nc2ccccc2C(=O)O)c(C(=O)O)c1 [xxvii, 5-(2-aminoethyl)-2-{[2-[(2-carboxyphenyl)amino]-4-(trifluoromethyl)phenyl]amino}benzoic acid hydrochloride]
18 | > 20 | O=C(O)c1ccccc1Nc1ccccc1Nc1cc(F)ccc1C(=O)O [lix, 2-({2-[(2-carboxyphenyl)amino]phenyl}amino)-4-fluorobenzoic acid]

From patent US20040142993A1, “Inhibitors of HCV NS5B polymerase” (priority 2002, published 2004)
